Tests used:
[1] = Suppressive effect on elevation of blood sugar level after glucose loading in mice; assay type: in vivo
Method: Each group consisting of five mice was fasted for 17-24 hours and then Y-4 was orally administered at varying doses. After 30 minutes, mice were given glucose orally at a dose of 1 g/kg body weight. Blood samples were collected from the tail end of mice at different time intervals and assayed for blood sugar levels using GLUTEST™ sensor available from Matsushita Kotobuki Electronic Industry Company.

[2] = test system: intestinal α-glucosidase; experiment: Inhibition of intestinal α-glucosidase activity of normal mouse (intestinal homogenate, glucose production); assay type: biochemical; conditions: for Glucose (glucose production from isomaltose): substrate isomaltose; for Glucose (glucose production from isomaltose) / Glucose (glucose production from maltose) / Glucose (glucose production from sucrose): 37° C., 30 minutes; for Glucose (glucose production from maltose): substrate maltose; for Glucose (glucose production from sucrose): substrate sucrose
Method: (§1) Intestinal tract enucleated from a normal mouse was homogenized by the conventional method after removing membrane mucosa. As a substrate, sucrose, starch, maltose or isomaltose was used. The homogenate was incubated with the substrate in the presence of a test compound (Y-4 or zinc chloride) at 37° C. for 30 minutes. The reaction mixture was centrifuged and the glucose concentration in the resulting supernatant was assayed. The glucose assay was conducted calorimetrically by adding a chromogenic reagent (0.47 mol/l of orthotoluidine, 16 mol/l of acetic acid, 10 mmol/l of boric acid) to the supernatant, heating the mixture in a boiling water bath for 8 minutes and measuring the absorbance at 635 nm. α-Glucosidase activity expressed in terms of glucose concentration/mg protein was calculated.

[3] = 1,200 mg/kg orally administered to mice; cited from earlier work
[4] = Suppressive effect on elevation of blood sugar level after sucrose loading in mice; assay type: in vivo
Method: Each group consisting of five mice was fasted for 17-24 hours and then Y-4 was orally administered at varying doses.
Mice were orally given 1 g/kg body weight of sucrose 30 minutes after the administration of Y-4 or 2 g/kg body weight of sucrose 2 hours after the administration of Y-4. As in the preceding example, blood samples were collected from the tail end of mice at different time intervals and assayed for blood sugar levels.

[5] = test system: intestinal α-glucosidase; experiment: Inhibition of intestinal α-glucosidase activity of streptozocin-induced diabetic mouse; assay type: biochemical; conditions: for Glucose (glucose production from maltose) / Glucose (glucose production from sucrose): diabetic mouse; for Glucose (glucose production from maltose): substrate maltose; for Glucose (glucose production from sucrose): substrate sucrose
Method: as §1
Example 5 was repeated using intestinal tract enucleated from a diabetic mouse induced by the treatment with streptozocin instead of intestinal tract enucleated from a normal mouse to determine the inhibitory effect of Y-4 on α-glycosidase activity. The intestinal α-glucosidase activity was higher in streptozocin-induced diabetic mouse than in normal mouse. […] The inhibitory effect of Y-4 was more remarkable in the diabetic mouse than in normal mouse.

[6] = Blood sugar and insulin levels in streptozocin-induced diabetic mice after sucrose loading; assay type: in vivo; conditions: STZ diabetic mice; for Blood sugar level: 200 mg/kg p.o. 30 minutes before sucrose 2 g/kg
Method: Experimental diabetes was induced in mice by treating the mice with streptozocin (STZ) (100 mg/kg/day i.p. for two days). After fasting for 17-24 hours, the mice were orally given Y-4 at varying doses 30 minutes before loading 2 g/kg of sucrose. After sucrose loading, blood samples were collected and assayed for blood sugar levels at different time intervals as in the preceding examples.
Similar to the above experiments, Y-4 was orally administered to the mice having experimental diabetes at a dose of 100 mg/kg 30 minutes before loading of 2 g of sucrose. Blood sugar and insulin levels in blood samples collected 30 minutes after sugar loading are shown in FIG. 1 and FIG. 2, respectively.

[7] = Improvement of insulin resistance in Wistar fatty rats with type II diabetes (glucose loading after 8 weeks); assay type: in vivo; conditions: 150 mg/kg daily p.o. 8 weeks, after glucose 2.5 g/kg
Method: Y-4 was orally administered to male Wistar fatty rats (WFR) having tyep II diabetes with obesity and hyperlipidemia at an average daily dose of 150 mg/kg for consecutive 8 weeks. Eight weeks after the initiation of administration, the rats were fasted for 20 hours and then given oral administration of 2.5 g/kg/rat of glucose. Blood samples were collected from the tail vein at 30, 60, 120 and 180 minutes after the administration of glucose for assaying blood sugar and insulin levels. The results are shown in FIG. 3 and FIG. 4, respsectively.

[8] = 100 mg/kg p.o. 30 minutes before sucrose, 30 minutes after sugar loading

For `NC[C@H]1CC[C@H](C(=O)[O-])CC1.NC[C@H]1CC[C@H](C(=O)[O-])CC1.O.[Zn+2]` [Y-4, zinc tranexamate monohydrate], the Blood sugar level ([1]; 50 mg/kg p.o. 30 min before glucose 1 g/kg, 20 min.) was 96.0 ± 3.5 mg/dL, the Blood sugar level ([1]; 50 mg/kg p.o. 30 min before glucose 1 g/kg, 40 min.) was 104.8 ± 7.1 mg/dL and the Blood sugar level ([1]; 50 mg/kg p.o. 30 min before glucose 1 g/kg, 60 min.) was 99.0 ± 14.0 mg/dL. It also gave a Blood sugar level ([1]; 50 mg/kg p.o. 30 min before glucose 1 g/kg, 120 min.) of 78.4 ± 6.4 mg/dL, a Blood sugar level ([1]; 50 mg/kg p.o. 30 min before glucose 1 g/kg, 180 min.) of 58.4 ± 6.0 mg/dL and a Blood sugar level ([1]; 100 mg/kg p.o. 30 min before glucose 1 g/kg, 20 min.) of 89.0 ± 2.9 mg/dL. It also gave a Blood sugar level ([1]; 100 mg/kg p.o. 30 min before glucose 1 g/kg, 40 min.) of 112.6 ± 5.0 mg/dL, a Blood sugar level ([1]; 100 mg/kg p.o. 30 min before glucose 1 g/kg, 60 min.) of 97.6 ± 0.9 mg/dL and a Blood sugar level ([1]; 100 mg/kg p.o. 30 min before glucose 1 g/kg, 120 min.) of 73.1 ± 2.5 mg/dL. For the same compound, the Blood sugar level ([1]; 100 mg/kg p.o. 30 min before glucose 1 g/kg, 180 min.) was 52.1 ± 1.9 mg/dL, the Blood sugar level ([1]; 200 mg/kg p.o. 30 min before glucose 1 g/kg, 20 min.) was 83.0 ± 4.1 mg/dL and the Blood sugar level ([1]; 200 mg/kg p.o. 30 min before glucose 1 g/kg, 40 min.) was 95.2 ± 3.6 mg/dL. The Blood sugar level ([1]; 200 mg/kg p.o. 30 min before glucose 1 g/kg, 60 min.) was 84.4 ± 2.8 mg/dL, the Blood sugar level ([1]; 200 mg/kg p.o. 30 min before glucose 1 g/kg, 120 min.) was 66.2 ± 3.3 mg/dL and the Blood sugar level ([1]; 200 mg/kg p.o. 30 min before glucose 1 g/kg, 180 min.) was 53.9 ± 2.1 mg/dL. The “Elevation of blood sugar level after glucose loading” value ([1]; varying oral doses 30 minutes before glucose 1 g/kg) was “suppressed elevation of blood sugar level”, the “Glucose (glucose production from isomaltose)” value ([2]; inhibitor 5 mM) was 5.009 ± 0.387 mg/mg protein and the “Glucose (glucose production from isomaltose)” value ([2]; inhibitor 10 mM) was 4.150 ± 0.351 mg/mg protein. For the same compound, the “Glucose (glucose production from isomaltose)” value ([2]; inhibitor 30 mM) was 3.473 ± 0.520 mg/mg protein, the “Glucose (glucose production from isomaltose)” value ([2]; inhibitor 50 mM) was 3.158 ± 0.206 mg/mg protein and the “Glucose (glucose production from maltose)” value ([2]; inhibitor 5 mM) was 17.956 ± 0.423 mg/mg protein. The “Glucose (glucose production from maltose)” value ([2]; inhibitor 10 mM) was 14.810 ± 0.956 mg/mg protein, the “Glucose (glucose production from maltose)” value ([2]; inhibitor 30 mM) was 10.963 ± 0.399 mg/mg protein and the “Glucose (glucose production from maltose)” value ([2]; inhibitor 50 mM) was 5.353 ± 0.017 mg/mg protein. The “Glucose (glucose production from sucrose)” value ([2]; inhibitor 5 mM) was 4.078 ± 0.073 mg/mg protein, the “Glucose (glucose production from sucrose)” value ([2]; inhibitor 10 mM) was 1.682 ± 0.097 mg/mg protein and the “Glucose (glucose production from sucrose)” value ([2]; inhibitor 30 mM) was 0.726 ± 0.157 mg/mg protein. The “Glucose (glucose production from sucrose)” value ([2]; inhibitor 50 mM) was 0.436 ± 0.036 mg/mg protein, the “α-Glucosidase activity, all substrates” value ([2]; sucrose, starch, maltose, isomaltose, concentration higher than 5 mM) was “inhibited α-glucosidase activity in the reaction with all substrates” and the “Acute toxicity (death)” value [3] was “no death”. It also gave a Blood sugar level ([4]; 50 mg/kg p.o. 30 minutes before sucrose 1 g/kg, 20 min.) of 71.0 ± 5.9 mg/dL, a Blood sugar level ([4]; 50 mg/kg p.o. 30 minutes before sucrose 1 g/kg, 40 min.) of 90.8 ± 10.0 mg/dL and a Blood sugar level ([4]; 50 mg/kg p.o. 30 minutes before sucrose 1 g/kg, 60 min.) of 76.6 ± 9.9 mg/dL. For the same compound, the Blood sugar level ([4]; 50 mg/kg p.o. 30 minutes before sucrose 1 g/kg, 90 min.) was 68.0 ± 8.1 mg/dL, the “Elevation of blood sugar level after sucrose loading” value ([4]; 100 mg/kg and 200 mg/kg 30 minutes before sucrose loading, up to 90 minutes) was “significant suppressive effect” and the Blood sugar level ([4]; 100 mg/kg p.o. 30 minutes before sucrose 1 g/kg, 20 min.) was 50.8 ± 2.4 mg/dL. For the same compound, the Blood sugar level ([4]; 100 mg/kg p.o. 30 minutes before sucrose 1 g/kg, 40 min.) was 59.3 ± 2.4 mg/dL, the Blood sugar level ([4]; 100 mg/kg p.o. 30 minutes before sucrose 1 g/kg, 60 min.) was 72.9 ± 2.6 mg/dL and the Blood sugar level ([4]; 100 mg/kg p.o. 30 minutes before sucrose 1 g/kg, 90 min.) was 60.6 ± 2.3 mg/dL. For the same compound, the Blood sugar level ([4]; 200 mg/kg p.o. 30 minutes before sucrose 1 g/kg, 20 min.) was 40.4 ± 0.4 mg/dL, the Blood sugar level ([4]; 200 mg/kg p.o. 30 minutes before sucrose 1 g/kg, 40 min.) was 53.2 ± 7.5 mg/dL and the Blood sugar level ([4]; 200 mg/kg p.o. 30 minutes before sucrose 1 g/kg, 60 min.) was 58.2 ± 8.7 mg/dL. For the same compound, the Blood sugar level ([4]; 200 mg/kg p.o. 30 minutes before sucrose 1 g/kg, 90 min.) was 57.6 ± 3.2 mg/dL, the Blood sugar level ([4]; 200 mg/kg p.o. 2 hours before sucrose 2 g/kg, 20 min.) was 66.2 ± 6.3 mg/dL and the Blood sugar level ([4]; 200 mg/kg p.o. 2 hours before sucrose 2 g/kg, 40 min.) was 84.6 ± 8.9 mg/dL. For the same compound, the Blood sugar level ([4]; 200 mg/kg p.o. 2 hours before sucrose 2 g/kg, 60 min.) was 94.0 ± 18.0 mg/dL, the Blood sugar level ([4]; 200 mg/kg p.o. 2 hours before sucrose 2 g/kg, 90 min.) was 94.4 ± 17.2 mg/dL and the “Glucose (glucose production from maltose)” value ([5]; inhibitor 5 mM) was 23.060 ± 1.129 mg/mg protein. The “Glucose (glucose production from maltose)” value ([5]; inhibitor 10 mM) was 18.569 ± 1.617 mg/mg protein, the “Glucose (glucose production from maltose)” value ([5]; inhibitor 30 mM) was 15.113 ± 0.093 mg/mg protein and the “Glucose (glucose production from maltose)” value ([5]; inhibitor 50 mM) was 12.793 ± 0.337 mg/mg protein. For the same compound, the “Glucose (glucose production from sucrose)” value ([5]; inhibitor 5 mM) was 10.128 ± 1.137 mg/mg protein, the “Glucose (glucose production from sucrose)” value ([5]; inhibitor 10 mM) was 5.312 ± 1.113 mg/mg protein and the “Glucose (glucose production from sucrose)” value ([5]; inhibitor 30 mM) was 3.146 ± 0.157 mg/mg protein. For the same compound, the “Glucose (glucose production from sucrose)” value ([5]; inhibitor 50 mM) was 2.251 ± 0.327 mg/mg protein, the “Inhibition of intestinal α-glucosidase, all substrates” value ([5]; streptozocin-induced diabetic mouse) was “remarkably inhibited” and the “Blood sugar level (FIG. 1)” value [6, 8] was “suppressed the elevation of blood sugar level almost completely”. For the same compound, the “Insulin level (FIG. 2)” value [6, 8] was “not significantly different from the control value of normal mice group”, the Blood sugar level ([6]; 20 min.) was 96.8 mg/dL and the Blood sugar level ([6]; 40 min.) was 134.2 mg/dL. The Blood sugar level ([6]; 60 min.) was 138.2 mg/dL, the Blood sugar level ([6]; 90 min.) was 137.0 mg/dL and the Blood sugar level ([6]; 180 min.) was 131.8 mg/dL. The “Elevation of blood sugar level after sucrose loading in diabetic mice” value ([6]; 30 minutes before sucrose loading, up to 3 hours) was “remarkably suppressed the elevation of blood sugar level”, the “Blood sugar level (FIG. 3)” value [7] was “significantly controlled” and the “Insulin level (FIG. 4)” value [7] was “normalized”.

Reference: US6358999B2, “Use of zinc tranexamate in the treatment of diabetes” (Hamari Chemicals, LTD, priority 2000, dated 2002)
